Square brackets hold non-standard residues; d marks the D form. Peptide text beside a SMILES is read from it. * marks the point of attachment. Lauroyl = CCCCCCCCCCCC(=O)*
Tests used:
[1] = test system: P. aeruginosa PAO1 (wild-type); test: microbe, parasite or virus in culture
Description: (§1) We evaluated the activity of SPRLPs in combination with fifteen clinically-used antibiotics against P. aeruginosa. Antibiotics tested included fluoroquinolones (moxifloxacin, ciprofloxacin and levofloxacin), aminoglycosides (gentamicin, tobramycin and amikacin), cephalosporins (ceftazidime and cefotaxime), carbapenems (meropenem and doripenem), aztreonam, rifampicin, minocycline, colistin and fosfomycin. The SPRLPs were screened initially at a fixed concentration of 8 μg/mL (5 μM) in combination with antibiotics against wild-type P. aeruginosa PAO1. We assessed potentiation by at least a four-fold absolute MIC reduction of the antibiotic, after which synergism was further validated by a conventional checkerboard assay. A fractional inhibitory concentration (FIC) index of ≤0.5, 0.5<x≤4 or >4 was interpreted as synergistic, indifferent or antagonistic interaction, respectively (31). FIC index was obtained by adding the FIC values of the antibiotic and the SPRLP adjuvant. FIC of antibiotics was calculated by dividing the MIC of the antibiotic in the presence of the adjuvant by the MIC of the antibiotic alone. Similarly, the FIC of adjuvant was calculated via dividing the MIC of the adjuvant in the presence of the antibiotic by the MIC of the adjuvant alone.
(§2) Microbroth dilution susceptibility test following the Clinical and Laboratory Standards Institute (CLSI) guidelines (32) was performed to assess the in vitro antibacterial activity of SPRLPs. Overnight grown bacterial cultures were diluted in saline to achieve a 0.5 McFarland turbidity, followed by 1:50 dilution in Mueller-Hinton broth (MHB) for inoculation to a final concentration of 5×10^5 colony forming units/mL. The assay was done on a 96-well plate to which the agents of interest were 2-fold serially diluted in MHB and incubated with equal volumes of inoculum at 37° C. for 18 hours. MIC was determined as the lowest concentration to inhibit visible bacterial growth in form of turbidity, which was confirmed using EMax Plus microplate reader (Molecular Devices, USA) at a wavelength of 590 nm. The well containing MHB broth with or without bacterial cells was used as positive or negative control, respectively.
(§3) The assay was performed on a 96-well plate, to which the agents of interest was 2-fold serially diluted in working MHB. Prior to serial dilution, SPRLP was added to the working MHB media so that a fixed final concentration of 8 μg/mL (5 μM) SPRLP per well was achieved. To ensure that the assay was working, the MIC determination test of the studied antibiotic (without SPRLP) was included on the same plate. Similar MIC results between the assay comparator and an independent MIC determination test (on a different plate) ensured validity of the synergy test. Overnight grown bacterial cultures were diluted in saline to 0.5 McFarland turbidity, followed by 1:50 dilution in MHB (without SPRLP) and inoculation into each well to a final concentration of approximately 5×10^5 colony forming units/mL. Wells containing only MHB (without SPRLP) with or without bacterial cells were used as positive or negative control, respectively. The plate was then incubated at 37° C. for 18 hours and examined for visible turbidity, to which was confirmed using EMax Plus microplate reader (Molecular Devices, USA) at a wavelength of 590 nm. A 4-fold or more MIC reduction of antibiotic in the presence of 8 μg/mL (5 μM) SPRLP denoted a positive synergy result and was further validated by a checkerboard assay.
The assay was done on a 96-well plate as previously described (40, 41). The agent of interest was 2-fold serially diluted along the x-axis, while the adjuvant was 2-fold serially diluted along the y-axis to create a matrix in which each well consist of a combination of both at different concentrations.

pig erythrocytes = format: cell-based
In short: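 Washed pig erythrocytes in PBS were mixed with 2-fold serial dilutions of peptide and incubated for 1 h at 37° C. Released hemoglobin in the supernatant was read at 570 nm, with PBS and 0.1% Triton X-100 as controls. MHC was the minimum concentration giving 5% hemolysis.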

[2] = test system: wild-type and MDR/XDR P. aeruginosa clinical isolates; conditions: for interaction with minocycline (in words) / interaction with rifampicin (in words): checkerboard assay, P. aeruginosa; for MIC (lipopeptide alone): wild-type and clinical isolates of P. aeruginosa
Description: as §1
Isolates used in this study were either obtained from the American Type Culture Collection (ATCC), the Canadian National Intensive Care Unit (CAN-ICU) surveillance study (27) or the Canadian Ward Surveillance (CANWARD) study (28). Clinical isolates belonging to the CAN-ICU and CANWARD studies were recovered from patients suffering a presumed infectious disease entering or admitted in a participating medical center across Canada during the time of study. MDR P. aeruginosa strains in this study refer to those that are resistant to aminoglycosides, fluoroquinolones, cephalosporins, and carbapenems while XDR strains are those that are resistant to aminoglycosides, fluoroquinolones, cephalosporins, carbapenems, aztreonam and penicillin+β-lactamase inhibitor combination (39, 40).
as §2
as §3, with “respectively.” for “respectively. The plate was then incubated at 37° C. for 18 hours and examined for visible turbidity, to which was confirmed using EMax Plus microplate reader (Molecular Devices, USA) at a wavelength of 590 nm. A 4-fold or more MIC reduction of antibiotic in the presence of 8 μg/mL (5 μM) SPRLP denoted a positive synergy result and was further validated by a checkerboard assay.”

[3] = P. aeruginosa PAO1, degree of minocycline potentiation in the presence of 8 μg/mL (5 μM) lipopeptide
[4] = P. aeruginosa PAO1, degree of rifampicin potentiation in the presence of 8 μg/mL (5 μM) lipopeptide

Structure (SMILES)	Potentiation [1, 3]	Potentiation [1, 4]	MIC (agent alone) ([1]; PAO1)	MHC (minimum concentration that resulted in 5% red blood cell hemolysis) (pig erythrocytes)	hemolysis (pig erythrocytes; red cells of porcine, 512 μg/mL)	strains in which MIC of rifampicin reached susceptibility breakpoint ([2]; 8 μg/mL (5 μM) lipopeptide, breakpoint ≤1 μg/mL (CLSI, Staphylococcus spp.))	strains in which MIC of minocycline was reduced below susceptibility breakpoint ([2]; 8 μg/mL (5 μM) lipopeptide, breakpoint ≤4 μg/mL (CLSI, Acinetobacter spp.))	interaction with minocycline (in words) [2]	interaction with rifampicin (in words) [2]	MIC (lipopeptide alone) [2]	Absolute MIC MIN ([1]; P. aeruginosa PAO1, MIC of minocycline in the presence of 8 μg/mL (5 μM) lipopeptide)	Absolute MIC RMP ([1]; P. aeruginosa PAO1, MIC of rifampicin in the presence of 8 μg/mL (5 μM) lipopeptide)	MIC (agent alone) ([1]; P. aeruginosa PAO1, antibiotic or lipopeptide alone)
CCCCCCCCCCCC(=O)N1CCC[C@H]1C(=O)N[C@@H](CCCNC(=N)N)C(=O)N1CCC[C@H]1C(=O)N[C@@H](CCCNC(=N)N)C(=O)N1CCC[C@H]1C(=O)N[C@@H](CCCNC(=N)N)C(=O)N1CCC[C@H]1C(N)=O [Compound C12-PRP, CH3(CH2)10CO-PRPRPRP-NH2] (Lauroyl-PRPRPRP-NH2)	8-fold	8-fold	128 mg/L	> 512 µg/mL	4.6±0.2%	five out of nine	seven out of nine	strongly synergistic	significant potentiation	inactive	–	–	–
CCCCCCCCCCCC(=O)N1CCC[C@@H]1C(=O)N[C@H](CCCNC(=N)N)C(=O)N1CCC[C@@H]1C(=O)N[C@H](CCCNC(=N)N)C(=O)N1CCC[C@@H]1C(=O)N[C@H](CCCNC(=N)N)C(=O)N1CCC[C@@H]1C(N)=O [C12-prp] (Lauroyl-[dP][dR][dP][dR][dP][dR][dP]-NH2)	4-fold	8-fold	–	–	–	–	–	potentiated	potentiated	> 128 mg/L	2 mg/L	1 mg/L	>128 mg/L

From patent publication US20200407398A1, “Short Proline-Rich Lipopeptide Potentiates Minocycline and Rifampicin Against Multidrug-and Extensively Drug-Resistant Pseudomonas Aeruginosa” (priority 2018, published 2020)
